# Assay results as given in patent US20220125746A1, “METHOD OF PREVENTING OR TREATING TREATMENT-INDUCED GASTROINTESTINAL INJURY” (priority 2019, published 2022).
# Structures can show the parent of a compound that is named as a salt.
# Experiments:
# mouse colonic organoids = assay: Mouse colonic organoids treated with CPT; format: cell-based; conditions: CPT 500 nM 24 h
# Experimental: Fresh mucosal scrapings from 10 cm of jejunum were washed in cold PBS, resuspended in 700 ul of RNA lysis buffer, and homogenized in a Dounce homogenizer. RNA was isolated using the Quick-RNA MiniPrep kit (Zymo Research) according to the manufacturer's instructions. Organoids were freed from Matrigel using Cell Recovery Solution (Corning), as described in, before RNA isolation. Complementary DNA was generated from 2 ug of total RNA from mice or ˜100 ng of total RNA from colonic organoids and was pooled from three mice or three wells of organoid culture per treatment group using SuperScript III reverse transcriptase (Invitrogen) and random primers. Gene expression was normalized to Gapdh. Representative results are shown, and similar results were obtained in at least three independent experiments. Details on mouse and human primers are found in Tables 1 and 2.
# Mouse crypt isolation, organoid development, and passage were done as previously described with minor modifications. In brief, the complete culture medium for mouse intestinal organoids was slightly modified as follows: advanced Dulbecco's modified Eagle medium (DMEM)/F12 (12634-010, Invitrogen) was supplemented with 100 units/ml penicillin/0.1 mg/ml streptomycin (Invitrogen), 2 mM GlutaMAX (ThermoFisher), 20% (vol/vol) FBS (S11150, ATLANTA Biologicals), and WRN-conditioned medium (50%, vol/vol). Freshly isolated crypts were cultured with the same medium plus 10 μM Y-27632 (Y0503 Sigma) and 100 μg/ml Primocin (ant-pm-1, InvivoGen). For CPT and PUMAi treatment, intestinal organoids were passaged and re-plated in 25 μL of Matrigel (356231, Corning) in 24-well plates 24 hours before treatment with CPT (0.5 μM, C9911, Sigma-Aldrich) and PUMAi (50 μM) for 24 hours. The CPT-containing medium was replaced with complete medium containing PUMAi (50 μM). Three groups (treatment control, CPT only, and CPT plus PUMAi) were set up. Organoids 100 μm or greater in diameter were enumerated on day 6 after CPT treatment. Similar results were obtained from at least three independent experiments with triplicate wells in each experiment.
# [1] = colorectal cancer patients; cited from earlier work
# intestinal crypts = assay: CPT-11-induced intestinal crypt apoptosis in mice (TUNEL, active caspase-3); conditions: single dose 200 mg/kg, WT mice, TUNEL and active caspase-3
# Experimental: Puma+/+ (WT) and Puma−/− (Puma KO) mice (52) were generated in-house by heterozygote breeding. WT and Puma KO alleles were genotyped from genomic DNA isolated from tail snips, as described (52). p53−/− (p53 KO) mice were purchased from the Jackson Laboratory. […] All strains are in or have been backcrossed with the C57BL/6 background for more than 10 generations (F10). Mice were housed in microisolator cages in a room illuminated from 07:00 to 19:00 hours (12:12-hour light/dark cycle), with access to water and chow ad libitum.
# Rehydrated sections were treated with 3% hydrogen peroxide (immunochemistry only), followed by antigen retrieval for 10 min in boiling 0.1 M citrate buffer (pH 6.0) with 1 mM EDTA. Apoptosis was analyzed by TUNEL staining with the ApopTag Peroxidase In Situ Apoptosis Detection kit (Chemicon International) according to the manufacturer's instructions.
# Active caspase 3 IHC. Sections were deparaffinized and rehydrated through graded ethanols. Rehydrated sections were then treated with 3% hydrogen peroxide, followed by antigen retrieval for 10 minutes in boiling 0.1 M citrate buffer (pH 6.0) with 1 mM EDTA. Non-specific antibody binding was blocked using 20% goat serum (Invitrogen) at room temperature for 30 minutes.
# C57BL/6J mice = assay: Survival and GI injury after three daily doses of CPT-11; format: in vivo, mouse; conditions: for lethality: three consecutive daily doses, C57BL/6J WT mice
# Description: (§1) Immediately after sacrifice, about 10-cm portion of the jejunum was removed and carefully rinsed with ice-cold saline. The tissue was opened longitudinally and tacked to a foam board for fixation overnight in 10% formalin. Tissues were then rolled up into “swiss rolls” and embedded in paraffin. For tumor analysis, flank tumors were removed, measured, and cut into pieces for either formalin fixation or flash freezing in a dry ice/ethanol bath. Tissue sections (5 um) were deparaffinized and rehydrated through graded ethanols. Histological analysis was performed by hematoxylin and eosin (H&E) staining.
# ; CPT-11). […] . […] BH3-only proteins BIM and NOXA were not induced by CPT-11 or affected by Puma KO (FIG. 8F). […] . […] . Histological analysis confirmed lethal GI injury in WT and p53 KO mice on day 5, showing severe loss of crypts and shortening of villi, which was abrogated in Puma KO mice (FIG. 1F).
# LGR5+ stem cells = conditions: after six doses of CPT-11
# Experimental: WT and Puma KO mice carrying the Lgr5-EGFP-IRES-creERT2 marking allele were treated with CPT-11 and PUMAi over 2 weeks as in FIGS. 5A-5G and analyzed for intestinal phenotypes. (FIG. 6A) GFP (LGR5) immunofluorescence in intestinal crypts. Arrows indicate LGR5^+ (GFP) crypts. Scale bar, 100 um. (FIG. 6B) Quantitation of intestinal crypts containing at least one GFP^+ (LGR5^+) cell. (FIG. 6C) Top: Olfm4 RNA ISH in intestinal crypts. Scale bar, 50 um. Asterisks indicate Olfm4+ crypt cells. Bottom: Percentage of crypts containing at least one Olfm4+ cell. (FIG. 6D) MMP7 immunofluorescence in intestinal crypts. Scale bar, 100 um. (FIG. 6E) Quantitation of MMP7+ crypt cells at the crypt base (CBC region). (FIG. 6F) Top: GFP (LGR5) and MMP7 immunofluorescence in intestinal crypts. Scale bar, 20 um. Asterisks indicate LGR5^+/MMP7^+ cell pairs. Bottom: Quantitation of LGR5^+/MMP7^+ cell pairs per crypt. In (FIG. 6A), (FIG. 6D), and (FIG. 6F), DAPI was used to stain nuclei. In (FIG. 6B), (FIG. 6C), (FIG. 6E), and (FIG. 6F), values are means+SEM; n=3 mice. *P<0.05, **P<0.01, and ***P<0.001 (one-way ANOVA with Tukey post hoc test).
# LGR5 (GFP) IF. Sections were deparaffinized and rehydrated through graded ethanols. Antigen retrieval was performed by boiling for 10 minutes in 0.1 M citrate buffer (pH 6.0) with 1 mM EDTA. Non-specific antibody binding was blocked using 20% goat serum (Invitrogen) at room temperature for 30 min. […] Sections were then washed in PBS and mounted with VectaShield+DAPI (Vector Labs).
# MMP7 IF. Sections were prepared as described above. Non-specific antibody binding was blocked using 20% chicken serum (Invitrogen) at room temperature for 30 min. Sections were washed in PBS and incubated overnight at 4 °C in a humidified chamber with 1:100 diluted goat anti-MMP7 (AF2967; R&D Systems). […] Sections were then washed in PBS and mounted with VectaShield+DAPI (Vector Labs) for visualization.
# LGR5(GFP)/1VIMP7 IF. Sections were prepared as described above. Non-specific antibody binding was blocked using 20% chicken serum (Invitrogen) at room temperature for 30 min. Sections were then stained for GFP as described above, followed by staining for MMP7 as described.
# ISH for Olfm4 was carried out with the RNAscope 2.0 BROWN kit (Advanced Cell Diagnostics) according to the manufacturer's instructions. Briefly, tissue sections were baked for 60 min at 60 ÅåC, then deparaffinized in xylene, and rehydrated through graded ethanols. Sections then underwent three pretreatment steps, probe hybridization, six amplification steps, development, and counterstaining.
# [2] = system: Lewis lung carcinoma (LLC) tumors; assay: LLC tumor-bearing mice treated with CPT-11 six times over 2 weeks; format: in vivo, mouse; conditions: LLC tumor experiments
# Experimental: For tumor experiments, 4 million LLC cells [American Type Culture Collection (ATCC)] were injected into the flanks of WT and Puma KO mice and allowed to grow for 11 days. Mice were then treated with CPT-11 (200 mg/kg) three times per week for 2 weeks. PUMAi (10 mg/kg) or vehicle control was administered by intraperitoneal injection 2 hours before and 20 hours after each dose of CPT-11. Mice were sacrificed 4 hours after the final CPT-11 treatment.
# For tumor experiments, mice were treated with CPT-11 three times per week for two weeks. Mice receiving PUMAi were treated 2 hours before each dose of CPT-11 and 20 hours after. Mice were sacrificed four hours after the final CPT-11 treatment (FIG. 13A). Tumor volumes were measured with calipers and calculated as volume=(length x width2)/2. Mice were 7-9 weeks old, and roughly equal numbers of male and female animals were used. To account for variations in starting body weights, the values in FIGS. 3 and 4 are expressed as a percentage of the respective mouse weights at the time of the first CPT-11 treatment.
# as §1
# Average villus height was determined by measuring 40 to 50 villi from different locations of the small intestine, from at least three different animals per group, and reported as means A} SEM. Measurements were made from the top of the crypt to the tip of the villus using 100 Å˜H&E images and SPOT 5.1 Advanced software (Diagnostic Instruments Inc.).
# Neutrophil IF. Sections were prepared as described above. […] Sections were then incubated with AlexaFluor-594 goat antirat secondary antibodies (1:200; A11007; Invitrogen) for 1 hour at room temperature and counterstained with VectaShield plus DAPI.
# [3] = system: colon cancer cell line DLD1; assay: PUMA-induced apoptosis inhibition in DLD1
# Experimental: (§2) PUMAi was added to cells at 25 uM at the same time as CPT.
# (§3) A minimum of 300 cells per treatment were analyzed in triplicate.
# [4] = system: colon cancer cell line HCT-116; assay: PUMA-induced apoptosis inhibition in HCT-116
# Experimental: as §2, §3
# p53 = target: T1, p53 (Rattus norvegicus, UniProt P10361); conditions: rats, cited from earlier work
# T1 construct: host or cells: rat intestine in vivo
# T1 sequence (P10361 whole entry): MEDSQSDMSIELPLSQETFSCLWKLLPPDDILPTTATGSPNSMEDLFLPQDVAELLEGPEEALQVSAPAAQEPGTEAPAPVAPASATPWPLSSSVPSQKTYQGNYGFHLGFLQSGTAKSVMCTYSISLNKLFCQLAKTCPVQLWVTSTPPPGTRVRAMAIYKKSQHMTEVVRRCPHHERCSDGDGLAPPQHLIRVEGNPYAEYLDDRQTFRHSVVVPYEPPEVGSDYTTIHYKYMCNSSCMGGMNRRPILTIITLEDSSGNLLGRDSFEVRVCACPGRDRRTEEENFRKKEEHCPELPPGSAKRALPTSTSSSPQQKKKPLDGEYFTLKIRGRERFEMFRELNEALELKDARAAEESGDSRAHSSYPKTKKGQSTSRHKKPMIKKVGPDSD
Structure (SMILES),Apoptosis inhibition of DLD1 [3],Apoptosis inhibition of HCT-116 [4],further results
"CC[C@@]1(O)C(=O)OCc2c1cc1n(c2=O)Cc2cc3ccccc3nc2-1 [CPT, camptothecin, reference compound]",,,effect of CPT on mouse colonic organoids (mouse colonic organoids): induced growth suppression and activation of caspase-3
"CCc1c2c(nc3ccc(OC(=O)N4CCC(N5CCCCC5)CC4)cc13)-c1cc3c(c(=O)n1C2)COC(=O)[C@]3(O)CC [CPT-11, irinotecan hydrochloride, reference compound]",,,"patients with severe diarrhea and nausea [1]: more than 50%; time of peak crypt apoptosis (intestinal crypts): 6 h; lethality (C57BL/6J mice; 180 mg/kg per day): 30%; lethality (C57BL/6J mice; 215 mg/kg per day): 90%; lethality (C57BL/6J mice; 250 mg/kg per day): 100%; survival at the LD90 of CPT-11, without PUMAi (C57BL/6J mice; CPT-11 215 mg/kg per day x3, WT mice): 10%; drop in Olfm4+ crypts (RNA ISH) (LGR5+ stem cells): 93%; reduction of LGR5+ crypt cells and fraction of LGR5+ crypts (LGR5+ stem cells): more than 90%; % mice compieting treatment ([2]; PUMA KO mice): 100% (6/6); % mice compieting treatment ([2]; WT mice): 73% (8/11)"
"O=c1[nH]cc(F)c(=O)[nH]1 [Compound 5-FU, 5-fluorouracil]",,,patients with chemotherapy induced diarrhea [1]: 50%
Cc1ccc(OCC(=O)N/N=C/c2cccc(O)c2)cc1C [Compound 7a],41%,33%,
Cc1ccc(OCC(=O)N/N=C/c2cccc(O)c2)cc1 [Compound 7b],−2% (no inhibition),21%,
COc1cccc(/C=N/NC(=O)COc2cccc(C)c2)c1OC [Compound 7c],26%,21%,
O=C(CCc1ccccc1)N/N=C/c1cccc(O)c1 [Compound 7d],24%,21%,
Cc1ccc(OCC(=O)Nc2ccc(N3CCOCC3)cc2)cc1 [Compound 7e],30%,44%,
Cc1ccc(OCC(=O)Nc2ccc(S(N)(=O)=O)cc2)cc1 [Compound 7f],−2% (no inhibition),−8% (no inhibition),
N#CCc1ccc(NC(=O)COc2ccc3c(c2)CCC3)cc1 [Compound 7g],24%,−17% (no inhibition),
COc1cccc(/C=C/NC(=O)CNc2ccc(C)cc2)c1 [Compound 7h],30%,33%,
Cc1ccc(/C=N/NC(=O)COc2ccc(C)c(C)c2)o1 [Compound 7i],26%,13%,
CC(C)c1ccc(OCC(=O)N/N=C/c2cccnc2)cc1 [Compound 7j],26%,−8% (no inhibition),
CCCCc1c(C)nc(N2CCN(CCO)CC2)[nH]c1=O [Compound 20647237],21%,,
CC(C)CNC(=O)c1ccc2c(c1)nc1n2CCN(C(C)(C)CO)C1 [Compound 20722356],36%,,
Cc1ccc(OCC(O)CN2CCN(CCO)CC2)cc1C (stereo not drawn) [Compound 21487182],61%,35%,
COc1ccc(CCNC(=O)COc2ccc(C)cc2)cc1OC [Compound V1],41%,38%,
CCc1ccc(OCC(=O)NCc2ccc3c(c2)OCO3)cc1 [Compound V2],39%,40%,
Cc1ccc(C(=O)Cn2c3c(sc2=N)CCCC3)cc1 [pifithrin-α],,,delayed cell death and onset of mucositis (p53; CPT-11): did not affect delayed cell death or the onset of mucositis; CPT-11-induced intestinal apoptosis (p53; within the first several hours): reduced CPT-11-induced intestinal apoptosis
